Measurements as given in publication PMC4227718 (Journal of the American Chemical Society, 2014).

Key:
Pin1 = Pin1 (Homo sapiens, UniProt Q13526, S16A/Y23A); experiment: Fluorescence anisotropy binding to Pin1
HeLa cells = experiment: MTT cell proliferation assay; type: cell-based; conditions: 0-20 μM, 72 h

Pin1 inhibitory activity (Pin1): abolished the Pin1 inhibitory activity
Substance: bicyclo[Tm(D-Ala-Sar-D-Thr-D-Ala-Nal-Arg-Ala-D-Ala)-Dap-(Phe-Nal-Arg-Arg-Arg-Arg-Dap)]-Lys-NH2 [peptide 9]
Effect on HeLa cell growth (HeLa cells): no effect
